Experimental data as given in patent US6806230B1, “Pyrimidine derivatives and herbicides containing them” (Kumiai Chemical Industry Co., Ltd., priority 1999, dated 2004).

Each compound was assayed on barnyard grass (Eo) (assay: Test Example 1: herbicidal effects by flooded paddy field treatment). Details: dose 100 g active ingredient per 10 ares, examined on the 21st day after treatment, standards of Table 44.
Format: in vivo
Parameters: herbicidal effects, Eo (barnyard grass):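 0-5 growth inhibition grade; 5 = over 90%; 4 = 70-90%; 3 = 50-70%; 2 = 30-50%; 1 = 10-30%; 0 = under 10%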
Summary of the method: (§1)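 Seeds sown in puddled paddy soil and flooded to 3 cm. Next day, a water-diluted wettable powder was dripped onto the water surface at 100 g active ingredient per 10 ares. Plants were grown in a greenhouse, and herbicidal effect was scored against a rating standard 21 days after treatment.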

Compound | herbicidal effects, Eo (barnyard grass)
CCC(C)C(c1cncnc1C(F)(F)F)N(C)C(=O)Cc1ccc(Cl)s1 (mixture of isomers) [2-57] | 5
C#CCN(C(=O)Cc1ccc(Cl)s1)C(c1cncnc1C(F)(F)F)C(C)C (racemic) [2-74] | 5
CCc1ncncc1C(C(C)C)N(C)C(=O)Cc1ccc(Cl)s1 (racemic) [2-75] | 5
CCCc1ncncc1C(CCC)N(C)C(=O)Cc1ccc(F)cc1 (racemic) [1-493] | 5
CON=Cc1ncncc1C(C(C)C)N(C)C(=O)Cc1ccccc1 (racemic) [1-496] | 5
C#CCN(C(=O)Cc1ccc(F)cc1)C(c1cncnc1CC)C(C)C (racemic) [1-559] | 5
CCOC(OCC)C(c1cncnc1C(C)C)N(C)C(=O)Cc1ccc(F)cc1 (racemic) [1-455] | 5
Cc1ccc(CC(=O)N(C)C(c2cncnc2C#N)C(C)C)cc1 (racemic) [1-507] | 5
COc1ccc(C(c2cncnc2C(F)(F)F)N(C)C(=O)Cc2ccccc2)cc1 (racemic) [1-484] | 5
C=CCN(C(=O)Cc1ccc(F)cc1)C(c1cncnc1C(F)(F)F)C(C)C (racemic) [1-519] | 5
C#CCN(C(=O)Cc1ccccc1)C(c1cncnc1CC)C(C)C (racemic) [1-558] | 5
CN(C(=O)Cc1ccc(F)cc1)C(c1cncnc1C1(C)CC1)C1(C)CC1 (racemic) [1-473] | 5
C#CCN(C(=O)Cc1ccc(F)cc1)C(CCC)c1cncnc1CC (racemic) [1-607] | 5

The compounds below were run on monochoria (Mo) in the same assay as above. Details: dose 100 g active ingredient per 10 ares, examined on the 21st day after treatment, standards of Table 44.
Format: in vivo
Parameters: herbicidal effects, Mo (monochoria):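 0-5 growth inhibition grade; 5 = over 90%; 4 = 70-90%; 3 = 50-70%; 2 = 30-50%; 1 = 10-30%; 0 = under 10%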
Summary of the method: as §1

Compound | herbicidal effects, Mo (monochoria)
CCC(C)C(c1cncnc1C(F)(F)F)N(C)C(=O)Cc1ccc(Cl)s1 (mixture of isomers) [2-57] | 5
C#CCN(C(=O)Cc1ccc(Cl)s1)C(c1cncnc1C(F)(F)F)C(C)C (racemic) [2-74] | 5
CCc1ncncc1C(C(C)C)N(C)C(=O)Cc1ccc(Cl)s1 (racemic) [2-75] | 5
CCCc1ncncc1C(CCC)N(C)C(=O)Cc1ccc(F)cc1 (racemic) [1-493] | 5
CON=Cc1ncncc1C(C(C)C)N(C)C(=O)Cc1ccccc1 (racemic) [1-496] | 5
C#CCN(C(=O)Cc1ccc(F)cc1)C(c1cncnc1CC)C(C)C (racemic) [1-559] | 5
CCOC(OCC)C(c1cncnc1C(C)C)N(C)C(=O)Cc1ccc(F)cc1 (racemic) [1-455] | 5
Cc1ccc(CC(=O)N(C)C(c2cncnc2C#N)C(C)C)cc1 (racemic) [1-507] | 5
COc1ccc(C(c2cncnc2C(F)(F)F)N(C)C(=O)Cc2ccccc2)cc1 (racemic) [1-484] | 5
C=CCN(C(=O)Cc1ccc(F)cc1)C(c1cncnc1C(F)(F)F)C(C)C (racemic) [1-519] | 5
C#CCN(C(=O)Cc1ccccc1)C(c1cncnc1CC)C(C)C (racemic) [1-558] | 5
CN(C(=O)Cc1ccc(F)cc1)C(c1cncnc1C1(C)CC1)C1(C)CC1 (racemic) [1-473] | 5
C#CCN(C(=O)Cc1ccc(F)cc1)C(CCC)c1cncnc1CC (racemic) [1-607] | 5

What follows are compounds tested on barnyard grass (Ec) (assay: Test Example 2: herbicidal effects by upland soil treatment). Details: dose 100 g active ingredient per 10 ares, examined on the 21st day after treatment.
Format: in vivo
Parameters: scale not given here
Summary of the method: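 Pre-emergence test: barnyard grass and green foxtail sown in upland soil, then soil surface sprayed with wettable-powder formulation at 100 g active ingredient per 10 ares (100 l per 10 ares). Grown in greenhouse; herbicidal effect scored on a rating scale 21 days after treatment.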

Compound | Ec (herbicidal effects, index)
CCC(C)C(c1cncnc1C(F)(F)F)N(C)C(=O)Cc1ccc(Cl)s1 (mixture of isomers) [2-57] | 5
C#CCN(C(=O)Cc1ccc(Cl)s1)C(c1cncnc1C(F)(F)F)C(C)C (racemic) [2-74] | 5
CCc1ncncc1C(C(C)C)N(C)C(=O)Cc1ccc(Cl)s1 (racemic) [2-75] | 5
CCCc1ncncc1C(CCC)N(C)C(=O)Cc1ccc(F)cc1 (racemic) [1-493] | 5
CON=Cc1ncncc1C(C(C)C)N(C)C(=O)Cc1ccccc1 (racemic) [1-496] | 5
C#CCN(C(=O)Cc1ccc(F)cc1)C(c1cncnc1CC)C(C)C (racemic) [1-559] | 5
CCOC(OCC)C(c1cncnc1C(C)C)N(C)C(=O)Cc1ccc(F)cc1 (racemic) [1-455] | 5
Cc1ccc(CC(=O)N(C)C(c2cncnc2C#N)C(C)C)cc1 (racemic) [1-507] | 5
COc1ccc(C(c2cncnc2C(F)(F)F)N(C)C(=O)Cc2ccccc2)cc1 (racemic) [1-484] | 5
C=CCN(C(=O)Cc1ccc(F)cc1)C(c1cncnc1C(F)(F)F)C(C)C (racemic) [1-519] | 5
C#CCN(C(=O)Cc1ccccc1)C(c1cncnc1CC)C(C)C (racemic) [1-558] | 5
CN(C(=O)Cc1ccc(F)cc1)C(c1cncnc1C1(C)CC1)C1(C)CC1 (racemic) [1-473] | 5
C#CCN(C(=O)Cc1ccc(F)cc1)C(CCC)c1cncnc1CC (racemic) [1-607] | 4

What follows are compounds tested on barnyard grass (Ec) (assay: Test Example 3: herbicidal effects by foliage treatment in upland field). Details: dose 100 g active ingredient per 10 ares, examined on the 14th day after treatment.
Format: in vivo
Parameters: scale not given here
Summary of the method: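 Barnyard grass and green foxtail were grown in upland soil for 2 weeks in a greenhouse. A water-diluted wettable powder was sprayed over the foliage at 100 l per 10 ares, giving 100 g active ingredient per 10 ares. Herbicidal effect was scored on day 14 after treatment.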

Compound | Ec (herbicidal effects, index)
CCC(C)C(c1cncnc1C(F)(F)F)N(C)C(=O)Cc1ccc(Cl)s1 (mixture of isomers) [2-57] | 5
C#CCN(C(=O)Cc1ccc(Cl)s1)C(c1cncnc1C(F)(F)F)C(C)C (racemic) [2-74] | 4
CCc1ncncc1C(C(C)C)N(C)C(=O)Cc1ccc(Cl)s1 (racemic) [2-75] | 5
CCCc1ncncc1C(CCC)N(C)C(=O)Cc1ccc(F)cc1 (racemic) [1-493] | 4
CON=Cc1ncncc1C(C(C)C)N(C)C(=O)Cc1ccccc1 (racemic) [1-496] | 4
C#CCN(C(=O)Cc1ccc(F)cc1)C(c1cncnc1CC)C(C)C (racemic) [1-559] | 4
CCOC(OCC)C(c1cncnc1C(C)C)N(C)C(=O)Cc1ccc(F)cc1 (racemic) [1-455] | 4
Cc1ccc(CC(=O)N(C)C(c2cncnc2C#N)C(C)C)cc1 (racemic) [1-507] | 4
COc1ccc(C(c2cncnc2C(F)(F)F)N(C)C(=O)Cc2ccccc2)cc1 (racemic) [1-484] | 5
C=CCN(C(=O)Cc1ccc(F)cc1)C(c1cncnc1C(F)(F)F)C(C)C (racemic) [1-519] | 4
C#CCN(C(=O)Cc1ccccc1)C(c1cncnc1CC)C(C)C (racemic) [1-558] | 4
CN(C(=O)Cc1ccc(F)cc1)C(c1cncnc1C1(C)CC1)C1(C)CC1 (racemic) [1-473] | 5
C#CCN(C(=O)Cc1ccc(F)cc1)C(CCC)c1cncnc1CC (racemic) [1-607] | 4

The compounds below were run on barnyard grass (Eo) (assay: Test Example 4: selectivity for a crop plant by flooded paddy field treatment). Details: barnyard grass, dose 25 gai/10a, 21st day after treatment, index per Table 44.
Format: in vivo
Parameters: scale not given here
Summary of the method: (§2)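 Paddled paddy soil in pots sown with barnyard grass and monochoria, with second-leaf-stage rice transplanted, under 3 cm of water. Next day a diluted wettable powder was dripped onto the water at 25 g active ingredient per 10 ares; effects scored on a rating scale 21 days later in a greenhouse.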

Compound | Eo (herbicidal effect index)
CCC(C)C(c1cncnc1C(F)(F)F)N(C)C(=O)Cc1ccc(Cl)s1 (mixture of isomers) [2-57] | 5
C#CCN(C(=O)Cc1ccc(Cl)s1)C(c1cncnc1C(F)(F)F)C(C)C (racemic) [2-74] | 5
CCc1ncncc1C(C(C)C)N(C)C(=O)Cc1ccc(Cl)s1 (racemic) [2-75] | 5
CCCc1ncncc1C(CCC)N(C)C(=O)Cc1ccc(F)cc1 (racemic) [1-493] | 5
CON=Cc1ncncc1C(C(C)C)N(C)C(=O)Cc1ccccc1 (racemic) [1-496] | 5
C#CCN(C(=O)Cc1ccc(F)cc1)C(c1cncnc1CC)C(C)C (racemic) [1-559] | 5
CCOC(OCC)C(c1cncnc1C(C)C)N(C)C(=O)Cc1ccc(F)cc1 (racemic) [1-455] | 5
Cc1ccc(CC(=O)N(C)C(c2cncnc2C#N)C(C)C)cc1 (racemic) [1-507] | 5
COc1ccc(C(c2cncnc2C(F)(F)F)N(C)C(=O)Cc2ccccc2)cc1 (racemic) [1-484] | 5
C=CCN(C(=O)Cc1ccc(F)cc1)C(c1cncnc1C(F)(F)F)C(C)C (racemic) [1-519] | 5
C#CCN(C(=O)Cc1ccccc1)C(c1cncnc1CC)C(C)C (racemic) [1-558] | 5
CN(C(=O)Cc1ccc(F)cc1)C(c1cncnc1C1(C)CC1)C1(C)CC1 (racemic) [1-473] | 5
C#CCN(C(=O)Cc1ccc(F)cc1)C(CCC)c1cncnc1CC (racemic) [1-607] | 5

These compounds were tested on monochoria (Mo) in the same assay as above. Details: monochoria, dose 25 gai/10a, 21st day after treatment, index per Table 44.
Format: in vivo
Parameters: scale not given here
Summary of the method: as §2

Compound | Mo (herbicidal effect index)
CCC(C)C(c1cncnc1C(F)(F)F)N(C)C(=O)Cc1ccc(Cl)s1 (mixture of isomers) [2-57] | 5
C#CCN(C(=O)Cc1ccc(Cl)s1)C(c1cncnc1C(F)(F)F)C(C)C (racemic) [2-74] | 5
CCc1ncncc1C(C(C)C)N(C)C(=O)Cc1ccc(Cl)s1 (racemic) [2-75] | 5
CCCc1ncncc1C(CCC)N(C)C(=O)Cc1ccc(F)cc1 (racemic) [1-493] | 5
CON=Cc1ncncc1C(C(C)C)N(C)C(=O)Cc1ccccc1 (racemic) [1-496] | 5
C#CCN(C(=O)Cc1ccc(F)cc1)C(c1cncnc1CC)C(C)C (racemic) [1-559] | 5
CCOC(OCC)C(c1cncnc1C(C)C)N(C)C(=O)Cc1ccc(F)cc1 (racemic) [1-455] | 5
Cc1ccc(CC(=O)N(C)C(c2cncnc2C#N)C(C)C)cc1 (racemic) [1-507] | 5
COc1ccc(C(c2cncnc2C(F)(F)F)N(C)C(=O)Cc2ccccc2)cc1 (racemic) [1-484] | 5
C=CCN(C(=O)Cc1ccc(F)cc1)C(c1cncnc1C(F)(F)F)C(C)C (racemic) [1-519] | 5
C#CCN(C(=O)Cc1ccccc1)C(c1cncnc1CC)C(C)C (racemic) [1-558] | 5
CN(C(=O)Cc1ccc(F)cc1)C(c1cncnc1C1(C)CC1)C1(C)CC1 (racemic) [1-473] | 5
C#CCN(C(=O)Cc1ccc(F)cc1)C(CCC)c1cncnc1CC (racemic) [1-607] | 5

The compounds below were run on rice (Or) in the same assay as above. Details: rice transplanted at second leaf stage, dose 25 gai/10a, 21st day after treatment, index per Table 44.
Format: in vivo
Parameters: scale not given here
Summary of the method: as §2

Compound | Or (herbicidal effect index on crop)
CCC(C)C(c1cncnc1C(F)(F)F)N(C)C(=O)Cc1ccc(Cl)s1 (mixture of isomers) [2-57] | 1
C#CCN(C(=O)Cc1ccc(Cl)s1)C(c1cncnc1C(F)(F)F)C(C)C (racemic) [2-74] | 1
CCc1ncncc1C(C(C)C)N(C)C(=O)Cc1ccc(Cl)s1 (racemic) [2-75] | 1
CCCc1ncncc1C(CCC)N(C)C(=O)Cc1ccc(F)cc1 (racemic) [1-493] | 1
CON=Cc1ncncc1C(C(C)C)N(C)C(=O)Cc1ccccc1 (racemic) [1-496] | 1
C#CCN(C(=O)Cc1ccc(F)cc1)C(c1cncnc1CC)C(C)C (racemic) [1-559] | 1
CCOC(OCC)C(c1cncnc1C(C)C)N(C)C(=O)Cc1ccc(F)cc1 (racemic) [1-455] | 1
Cc1ccc(CC(=O)N(C)C(c2cncnc2C#N)C(C)C)cc1 (racemic) [1-507] | 1
COc1ccc(C(c2cncnc2C(F)(F)F)N(C)C(=O)Cc2ccccc2)cc1 (racemic) [1-484] | 1
C=CCN(C(=O)Cc1ccc(F)cc1)C(c1cncnc1C(F)(F)F)C(C)C (racemic) [1-519] | 1
C#CCN(C(=O)Cc1ccccc1)C(c1cncnc1CC)C(C)C (racemic) [1-558] | 1
CN(C(=O)Cc1ccc(F)cc1)C(c1cncnc1C1(C)CC1)C1(C)CC1 (racemic) [1-473] | 1
C#CCN(C(=O)Cc1ccc(F)cc1)C(CCC)c1cncnc1CC (racemic) [1-607] | 1
